Results on three compounds are retold here after ChEMBL document CHEMBL3286219, “NF-κB inhibitory activity of polyoxygenated steroids from the Vietnamese soft coral Sarcophyton pauciplicatum” (Bioorg Med Chem Lett, 2014).

Each structure is given as a SMILES string. Calls of active or inactive are those of the source. The rule behind the calls is not given here.

Assay type in all cases: cell-based
One series deals with HaCaT. As to the kind of experiment: Cytotoxicity against human HaCaT cells at 5 to 20 uM after 24 hrs by MTS assay.
The target of series [1] is T1, Nuclear factor NF-kappa-B complex (Homo sapiens) (UniProt Q00653+P19838+Q04206). As to the kind of experiment: Inhibition of NF-kappaB activation in human HaCaT cells assessed as inhibition of TNFalpha/IFNgamma-induced transcriptional activity at 50 uM after 24 hrs by Renilla luciferase assay.
For series [2], the target named is Nuclear factor NF-kappa-B complex (Homo sapiens, UniProt P19838+Q00653+Q04206). The series can be described thus: Inhibition of NF-kappaB activation in human HaCaT cells assessed as inhibition of TNFalpha/IFNgamma-induced transcriptional activity after 24 hrs by Renilla luciferase assay.
Series [3] concerns the target T1, Nuclear factor NF-kappa-B complex (Homo sapiens). As to the kind of experiment: Inhibition of NF-kappaB activation in human HaCaT cells assessed as inhibition of TNFalpha/IFNgamma-induced iNOS mRNA expression after 1 hr by RT-PCR.
The target is the same in series [4]. The series can be described thus: Inhibition of NF-kappaB activation in human HaCaT cells assessed as inhibition of TNFalpha/IFNgamma-induced ICAM-1 mRNA expression after 1 hr by RT-PCR.
Series [5] has the same target. As to the kind of experiment: Inhibition of NF-kappaB activation in human HaCaT cells assessed as inhibition of TNFalpha/IFNgamma-induced COX2 mRNA expression after 1 hr by RT-PCR.

T1 sequence (P19838 whole entry, looked up): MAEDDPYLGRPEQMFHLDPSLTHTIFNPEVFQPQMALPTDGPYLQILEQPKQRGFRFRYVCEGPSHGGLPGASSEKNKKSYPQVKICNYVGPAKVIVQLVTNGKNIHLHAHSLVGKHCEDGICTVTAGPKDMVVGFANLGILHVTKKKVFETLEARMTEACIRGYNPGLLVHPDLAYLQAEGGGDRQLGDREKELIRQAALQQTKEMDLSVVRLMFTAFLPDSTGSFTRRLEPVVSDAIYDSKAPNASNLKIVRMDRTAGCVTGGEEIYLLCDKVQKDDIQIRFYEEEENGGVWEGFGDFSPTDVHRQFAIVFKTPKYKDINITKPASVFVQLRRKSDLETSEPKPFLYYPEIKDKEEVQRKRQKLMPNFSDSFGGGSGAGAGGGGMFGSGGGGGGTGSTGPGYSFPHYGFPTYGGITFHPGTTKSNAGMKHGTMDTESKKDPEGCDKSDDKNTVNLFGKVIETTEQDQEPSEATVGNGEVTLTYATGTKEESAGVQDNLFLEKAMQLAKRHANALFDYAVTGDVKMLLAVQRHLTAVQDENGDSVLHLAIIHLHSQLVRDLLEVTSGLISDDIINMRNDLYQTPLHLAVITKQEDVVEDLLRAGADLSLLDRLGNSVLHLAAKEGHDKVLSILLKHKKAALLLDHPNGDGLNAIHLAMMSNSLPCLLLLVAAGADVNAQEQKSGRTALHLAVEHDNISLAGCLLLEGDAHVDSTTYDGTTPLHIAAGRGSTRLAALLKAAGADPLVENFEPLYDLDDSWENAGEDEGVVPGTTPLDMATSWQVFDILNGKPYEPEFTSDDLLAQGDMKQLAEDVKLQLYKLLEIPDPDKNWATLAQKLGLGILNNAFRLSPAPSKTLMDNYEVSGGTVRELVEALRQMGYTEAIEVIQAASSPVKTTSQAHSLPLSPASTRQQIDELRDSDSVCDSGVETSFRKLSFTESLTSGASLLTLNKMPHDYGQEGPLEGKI
T1 sequence (Q00653 whole entry, looked up): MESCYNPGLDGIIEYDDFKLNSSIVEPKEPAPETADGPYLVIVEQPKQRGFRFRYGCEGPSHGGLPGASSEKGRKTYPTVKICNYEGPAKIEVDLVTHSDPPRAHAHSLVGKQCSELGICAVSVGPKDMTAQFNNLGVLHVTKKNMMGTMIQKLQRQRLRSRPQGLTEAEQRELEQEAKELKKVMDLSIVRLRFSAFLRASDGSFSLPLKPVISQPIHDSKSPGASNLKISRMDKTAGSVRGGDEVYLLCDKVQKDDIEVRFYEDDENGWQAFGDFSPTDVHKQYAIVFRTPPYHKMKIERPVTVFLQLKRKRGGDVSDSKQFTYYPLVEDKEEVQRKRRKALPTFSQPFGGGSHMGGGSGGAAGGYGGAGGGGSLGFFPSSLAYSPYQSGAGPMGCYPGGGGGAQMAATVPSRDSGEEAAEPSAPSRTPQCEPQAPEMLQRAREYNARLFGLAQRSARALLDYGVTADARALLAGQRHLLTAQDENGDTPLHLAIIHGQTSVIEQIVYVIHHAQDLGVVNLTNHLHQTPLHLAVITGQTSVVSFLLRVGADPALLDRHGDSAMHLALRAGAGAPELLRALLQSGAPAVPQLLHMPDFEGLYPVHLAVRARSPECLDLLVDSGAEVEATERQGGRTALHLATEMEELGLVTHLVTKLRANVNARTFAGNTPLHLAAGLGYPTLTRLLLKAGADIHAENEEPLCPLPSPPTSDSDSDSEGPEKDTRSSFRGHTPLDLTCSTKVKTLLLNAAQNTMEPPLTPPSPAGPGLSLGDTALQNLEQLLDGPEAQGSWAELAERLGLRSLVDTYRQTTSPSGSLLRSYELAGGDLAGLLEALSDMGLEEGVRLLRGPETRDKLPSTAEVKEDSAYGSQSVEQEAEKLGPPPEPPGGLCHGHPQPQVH
T1 sequence (Q04206 whole entry, looked up): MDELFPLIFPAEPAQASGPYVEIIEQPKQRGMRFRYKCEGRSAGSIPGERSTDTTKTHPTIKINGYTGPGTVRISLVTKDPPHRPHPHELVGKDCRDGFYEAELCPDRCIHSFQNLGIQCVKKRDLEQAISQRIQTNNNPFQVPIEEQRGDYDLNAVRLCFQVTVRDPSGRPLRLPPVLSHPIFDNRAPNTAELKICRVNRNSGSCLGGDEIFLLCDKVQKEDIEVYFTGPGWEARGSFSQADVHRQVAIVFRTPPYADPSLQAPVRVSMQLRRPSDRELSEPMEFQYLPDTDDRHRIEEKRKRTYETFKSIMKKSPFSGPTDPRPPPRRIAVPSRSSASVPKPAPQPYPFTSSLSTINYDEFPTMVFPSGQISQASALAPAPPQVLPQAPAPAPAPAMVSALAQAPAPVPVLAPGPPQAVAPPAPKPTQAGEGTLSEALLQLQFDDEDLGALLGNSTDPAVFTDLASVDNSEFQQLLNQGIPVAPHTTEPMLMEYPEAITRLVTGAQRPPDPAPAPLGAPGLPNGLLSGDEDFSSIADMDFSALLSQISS
Chain of Nuclear factor NF-kappa-B complex (P19838 1-433 limits assumed): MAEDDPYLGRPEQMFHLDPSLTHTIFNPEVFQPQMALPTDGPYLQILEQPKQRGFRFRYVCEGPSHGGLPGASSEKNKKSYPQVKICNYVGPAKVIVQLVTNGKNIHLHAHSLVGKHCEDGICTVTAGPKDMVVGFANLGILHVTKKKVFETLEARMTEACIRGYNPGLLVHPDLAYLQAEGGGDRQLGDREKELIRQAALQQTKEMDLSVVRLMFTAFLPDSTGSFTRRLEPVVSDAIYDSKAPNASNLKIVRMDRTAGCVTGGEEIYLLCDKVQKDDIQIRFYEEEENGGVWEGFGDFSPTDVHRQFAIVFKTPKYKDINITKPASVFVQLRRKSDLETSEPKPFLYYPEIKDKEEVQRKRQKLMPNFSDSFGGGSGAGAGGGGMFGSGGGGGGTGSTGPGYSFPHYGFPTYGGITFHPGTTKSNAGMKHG
Chain of Nuclear factor NF-kappa-B complex (Q00653 1-454 limits assumed): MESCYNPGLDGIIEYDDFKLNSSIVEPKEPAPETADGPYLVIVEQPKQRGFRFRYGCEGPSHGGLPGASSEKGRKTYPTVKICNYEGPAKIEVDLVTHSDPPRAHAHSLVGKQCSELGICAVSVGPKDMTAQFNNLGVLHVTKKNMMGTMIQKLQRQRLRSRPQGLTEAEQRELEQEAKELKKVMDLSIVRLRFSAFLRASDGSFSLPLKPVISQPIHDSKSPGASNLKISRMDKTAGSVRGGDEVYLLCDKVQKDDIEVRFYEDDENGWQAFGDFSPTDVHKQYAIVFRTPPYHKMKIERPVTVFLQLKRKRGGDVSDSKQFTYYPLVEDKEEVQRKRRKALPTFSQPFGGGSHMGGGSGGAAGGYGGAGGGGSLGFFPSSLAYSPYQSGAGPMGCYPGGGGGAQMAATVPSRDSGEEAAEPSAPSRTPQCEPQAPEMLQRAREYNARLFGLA
Chain of Nuclear factor NF-kappa-B complex (Q04206 whole entry): as the sequence (Q04206 whole entry, looked up) above

Consider `C=C(C)[C@@H](C)CC[C@@H](C)[C@H]1CC[C@H]2[C@@H]3C[C@@H](O)[C@@]4(O)C[C@@H](O)C[C@@H](O)[C@]4(C)[C@H]3CC[C@]12C`, for which the Activity entry with HaCaT is recorded as “Non-toxic”. For the same compound, in series [1], the inhibition result was “Active”.
With `CC(=O)OC(C)(C)[C@@H](C)CC[C@@H](C)[C@H]1CC[C@H]2[C@@H]3C[C@@H](O)[C@@]4(O)C[C@@H](O)C[C@@H](O)[C@]4(C)[C@H]3CC[C@]12C`, the Activity result with HaCaT is reported as “Non-toxic”. Also, the EC50 in series [2] is 26.1 µM.
As to `CC(=O)OC(C)(C)[C@@H](C)/C=C/[C@@H](C)[C@H]1CC[C@H]2[C@@H]3C[C@@H](O)[C@@]4(O)C[C@@H](O)C[C@@H](O)[C@]4(C)[C@H]3CC[C@]12C`, the inhibition result in series [3], in series [4] and in series [5] was “Dose-dependent effect” each time. Moreover, in the series on HaCaT, the Activity result is reported as “Non-toxic”. For the same compound, the EC50 in series [2] was determined as 8.27 µM.

As usually defined, the EC50 is the midpoint of the concentration-response curve.
